For orientation: EC50 means the concentration at which the effect is half-maximal.

The test system of one assay is mouse immortalized TT-D6 Scx-luciferase (ScxL) cell line; transcriptional activation of Scleraxis (Scx) gene. The experiment in a line: SCX-LUC in vitro assay (scleraxis promoter luciferase reporter). It counts as cell-based. To be noted: Mus musculus, 96 h; Examples table; TT-D6 Scx-luciferase cells, 1 ng/ml TGFβ1, four days; read-out: Scx-Luc (EC50 μM). (In general: In a reporter assay the amount or activity of a reporter protein is the signal.)
In the case of `Nc1n[nH]c2ccc(-c3ccc(S(=O)(=O)Nc4cccc(F)c4F)cc3Cl)nc12` [Example 81, 4-(3-amino-1H-pyrazolo[4,3-b]pyridin-5-yl)-3-chloro-N-(2,3-difluorophenyl)benzenesulfonamide], the EC50 came to 0.203 µM.
On the same count and under the same terms, the result for `Nc1n[nH]c2ccc(-c3ccc(NS(=O)(=O)c4ccc(Cl)c(Cl)c4)cc3Cl)nc12` [Example 43, N-(4-(3-amino-1H-pyrazolo[4,3-b]pyridin-5-yl)-3-chlorophenyl)-3,4-dichlorobenzenesulfonamide] reads 3.31 µM.
For the compound `Nc1n[nH]c2ccc(-c3ccc(S(=O)(=O)N[C@H]4C[C@@H](CO)C4)cc3Cl)nc12` [Example 85, 4-(3-amino-1H-pyrazolo[4,3-b]pyridin-5-yl)-3-chloro-N-((1s,3s)-3-(hydroxymethyl)cyclobutyl)benzenesulfonamide], the half-maximal effective concentration (EC50) turned out to be 1.75 µM.
`Nc1n[nH]c2ccc(-c3ccc(NS(=O)(=O)c4cccc(Cl)c4)cc3Cl)nc12` [Example 28, N-(4-(3-amino-1H-pyrazolo[4,3-b]pyridin-5-yl)-3-chlorophenyl)-3-chlorobenzenesulfonamide]: the EC50 came to 2.5 µM.
With `Nc1n[nH]c2ccc(-c3ccc(S(=O)(=O)N[C@H]4CC[C@H](O)CC4)cc3Cl)nc12` [Example 45, 4-(3-amino-1H-pyrazolo[4,3-b]pyridin-5-yl)-3-chloro-N-((1r,4r)-4-hydroxycyclohexyl)benzenesulfonamide], the 50% effective concentration (EC50) was determined as 4.73 µM.
`Nc1n[nH]c2ccc(-c3ccc(S(=O)(=O)N4CC5CCCC5C4)cc3Cl)nc12` (stereo not drawn) [Example 51, 5-(2-chloro-4-((hexahydrocyclopenta[c]pyrrol-2(1H)-yl)sulfonyl)phenyl)-1H-pyrazolo[4,3-b]pyridin-3-amine]: the EC50 was found to be 2.39 µM.
The same measure, in the same setting: next, `COc1ccc(S(=O)(=O)Nc2ccc(-c3ccc4[nH]nc(N)c4n3)c(Cl)c2)cc1OC` [Example 79, N-(4-(3-amino-1H-pyrazolo[4,3-b]pyridin-5-yl)-3-chlorophenyl)-3,4-dimethoxybenzenesulfonamide]: 0.061 µM; `Nc1n[nH]c2ccc(-c3ccc(NS(=O)(=O)[C@@H]4CCCC[C@@H]4O)cc3Cl)nc12` [Example 60, (1R,2S)—N-(4-(3-amino-1H-pyrazolo[4,3-b]pyridin-5-yl)-3-chlorophenyl)-2-hydroxycyclohexane-1-sulfonamide]: 3.04 µM.
On to `Nc1n[nH]c2ccc(-c3ccc(S(=O)(=O)N[C@H]4CCC[C@H]4O)cc3Cl)nc12` [Example 35, 4-(3-amino-1H-pyrazolo[4,3-b]pyridin-5-yl)-3-chloro-N-((1S,2R)-2-hydroxycyclopentyl)benzenesulfonamide], for which the EC50 is 2.73 µM.
The same measure, in the same setting: the result for `Nc1n[nH]c2ccc(-c3ccc(S(=O)(=O)N4CC(Oc5ccccc5)C4)cc3Cl)nc12` [Example 87, 5-(2-chloro-4-((3-phenoxyazetidin-1-yl)sulfonyl)phenyl)-1H-pyrazolo[4,3-b]pyridin-3-amine] reads 0.83 µM; that for `Cc1cc(S(=O)(=O)NC2CCCC(O)C2)ccc1-c1ccc2[nH]nc(N)c2n1` (stereo not drawn) [Example 65, 4-(3-amino-1H-pyrazolo[4,3-b]pyridin-5-yl)-N-(3-hydroxycyclohexyl)-3-methylbenzenesulfonamide], 0.122 µM; that for `Cc1cc(S(=O)(=O)NC2(CO)CCCC2)ccc1-c1ccc2[nH]nc(N)c2n1` [Example 26, 4-(3-amino-1H-pyrazolo[4,3-b]pyridin-5-yl)-N-(1-(hydroxymethyl)cyclopentyl)-3-methylbenzenesulfonamide], 0.811 µM.
As to `Nc1n[nH]c2ccc(-c3ccc(S(=O)(=O)N[C@@H]4CC[C@H](O)C4)cc3Cl)nc12` [Example 23, 4-(3-amino-1H-pyrazolo[4,3-b]pyridin-5-yl)-3-chloro-N-((1R,3S)-3-hydroxycyclopentyl)benzenesulfonamide], the EC50 was 2.28 µM.
Still for that read-out and setting: the result for `Nc1n[nH]c2ccc(-c3ccc(NS(=O)(=O)c4ccc(C(F)(F)F)cc4)cc3Cl)nc12` [Example 78, N-(4-(3-amino-1H-pyrazolo[4,3-b]pyridin-5-yl)-3-chlorophenyl)-4-(trifluoromethyl)benzenesulfonamide] reads 2.44 µM.
Turning to `Cc1cc(S(=O)(=O)NC2CCCCC2O)ccc1-c1ccc2[nH]nc(N)c2n1` (stereo not drawn) [Example 91, 4-(3-amino-1H-pyrazolo[4,3-b]pyridin-5-yl)-N-(2-hydroxycyclohexyl)-3-methylbenzenesulfonamide], the EC50 came to 1.81 µM.
Regarding `Cc1cc(S(=O)(=O)N2CCC[C@H]2CO)ccc1-c1ccc2[nH]nc(N)c2n1` [Example 70, (S)-(1-((4-(3-amino-1H-pyrazolo[4,3-b]pyridin-5-yl)-3-methylphenyl)sulfonyl)pyrrolidin-2-yl)methanol], the 50% effective concentration (EC50) came out at 0.762 µM.
Consider `Nc1n[nH]c2ccc(-c3ccc(NS(=O)(=O)c4ccc5c(c4)NCCO5)cc3Cl)nc12` [Example 53, N-(4-(3-amino-1H-pyrazolo[4,3-b]pyridin-5-yl)-3-chlorophenyl)-3,4-dihydro-2H-benzo[b][1,4]oxazine-6-sulfonamide], for which the 50% effective concentration (EC50) came out at 2.74 µM.
In the case of `Nc1n[nH]c2ccc(-c3ccc(S(=O)(=O)N[C@H]4CC[C@@H](O)CC4)cc3Cl)nc12` [Example 48, 4-(3-amino-1H-pyrazolo[4,3-b]pyridin-5-yl)-3-chloro-N-((1s,4s)-4-hydroxycyclohexyl)benzenesulfonamide], the EC50 came to 2.02 µM.
Same read-out and setting: the result for `Nc1n[nH]c2ccc(-c3ccc(NS(=O)(=O)c4ccc(F)cc4)cc3Cl)nc12` [Example 6, N-(4-(3-amino-1H-pyrazolo[4,3-b]pyridin-5-yl)-3-chlorophenyl)-4-fluorobenzenesulfonamide] reads 0.58 µM; that for `Nc1n[nH]c2ccc(-c3ccc(S(=O)(=O)NC4(CO)CCCC4)cc3Cl)nc12` [Example 30, 4-(3-amino-1H-pyrazolo[4,3-b]pyridin-5-yl)-3-chloro-N-(1-(hydroxymethyl)cyclopentyl)benzenesulfonamide], 2.07 µM; that for `Cc1cc(NS(=O)(=O)c2cccc(Cl)c2)ccc1-c1ccc2[nH]nc(N)c2n1` [Example 42, N-(4-(3-amino-1H-pyrazolo[4,3-b]pyridin-5-yl)-3-methylphenyl)-3-chlorobenzenesulfonamide], 2 µM.
Still for that read-out and setting: next, `C[C@]1(O)CC[C@H](NS(=O)(=O)c2ccc(-c3ccc4[nH]nc(N)c4n3)c(Cl)c2)CC1` [Example 58, 4-(3-amino-1H-pyrazolo[4,3-b]pyridin-5-yl)-3-chloro-N-((1r,4r)-4-hydroxy-4-methylcyclohexyl)benzenesulfonamide]: 1.51 µM; `Nc1n[nH]c2ccc(-c3ccc(S(=O)(=O)Nc4ccccc4)cc3F)nc12` [Example 49, 4-(3-amino-1H-pyrazolo[4,3-b]pyridin-5-yl)-3-fluoro-N-phenylbenzenesulfonamide]: 0.87 µM; `Cc1cc(S(=O)(=O)N2CC(F)(F)C[C@H]2CO)ccc1-c1ccc2[nH]nc(N)c2n1` [Example 37, (S)-(1-((4-(3-amino-1H-pyrazolo[4,3-b]pyridin-5-yl)-3-methylphenyl)sulfonyl)-4,4-difluoropyrrolidin-2-yl)methanol]: 0.593 µM.
For the compound `Nc1n[nH]c2ccc(-c3ccc(S(=O)(=O)NC4CCCC(O)C4)cc3Cl)nc12` (stereo not drawn) [Example 44, 4-(3-amino-1H-pyrazolo[4,3-b]pyridin-5-yl)-3-chloro-N-(3-hydroxycyclohexyl)benzenesulfonamide], the EC50 is 4.12 µM.
Regarding `COc1cccc(S(=O)(=O)Nc2ccc(-c3ccc4[nH]nc(N)c4n3)c(Cl)c2)c1` [Example 67, N-(4-(3-amino-1H-pyrazolo[4,3-b]pyridin-5-yl)-3-chlorophenyl)-3-methoxybenzenesulfonamide], the half-maximal effective concentration (EC50) is 2.32 µM.
Take `Nc1n[nH]c2ccc(-c3ccc(S(=O)(=O)NC4CC(F)(F)C4)cc3Cl)nc12` [Example 4, 4-(3-amino-1H-pyrazolo[4,3-b]pyridin-5-yl)-3-chloro-N-(3,3-difluorocyclobutyl)benzenesulfonamide]: the concentration giving a half-maximal response (EC50) came to 0.444 µM.
On to `Nc1n[nH]c2ccc(-c3ccc(NS(=O)(=O)c4cccc(F)c4)cc3Cl)nc12` [Example 41, N-(4-(3-amino-1H-pyrazolo[4,3-b]pyridin-5-yl)-3-chlorophenyl)-3-fluorobenzenesulfonamide], for which the concentration for a half-maximal effect (EC50) was determined as 2.25 µM.
On to `Nc1n[nH]c2ccc(-c3ccc(S(=O)(=O)N[C@H]4CCC[C@@H]4O)cc3Cl)nc12` [Example 94, 4-(3-amino-1H-pyrazolo[4,3-b]pyridin-5-yl)-3-chloro-N-((1S,2S)-2-hydroxycyclopentyl)benzenesulfonamide], for which the half-maximal effective concentration (EC50) was found to be 0.026 µM.
Still for that read-out and setting: the result for `Cc1cc(NS(=O)(=O)c2cccc(F)c2)ccc1-c1ccc2[nH]nc(N)c2n1` [Example 33, N-(4-(3-amino-1H-pyrazolo[4,3-b]pyridin-5-yl)-3-methylphenyl)-3-fluorobenzenesulfonamide] reads 1.02 µM; that for `Cc1cccc(S(=O)(=O)Nc2ccc(-c3ccc4[nH]nc(N)c4n3)c(Cl)c2)c1` [Example 84, N-(4-(3-amino-1H-pyrazolo[4,3-b]pyridin-5-yl)-3-chlorophenyl)-3-methylbenzenesulfonamide], 0.045 µM; that for `Cc1cc(S(=O)(=O)N[C@H]2C[C@@H](O)C2)ccc1-c1ccc2[nH]nc(N)c2n1` [Example 64, 4-(3-amino-1H-pyrazolo[4,3-b]pyridin-5-yl)-N-((1s,3s)-3-hydroxycyclobutyl)-3-methylbenzenesulfonamide], 0.162 µM.

The assay is the same for the next values; noted with them: Mus musculus, 96 h; Table 1; TT-D6 Scx-luciferase cells, 1 ng/ml TGFβ1, four days; read-out: Scx-Luc (EC50 uM).
Consider `C[C@@H](O)c1nc2cnc3[nH]ccc3c2n1[C@@H]1CCCOC1` [reference compound], for which the EC50 was 1.34 µM.
Same read-out and setting: the result for `C1=C/COCc2cc(ccc2OCCN2CCCC2)Nc2nccc(n2)-c2cccc(c2)COC/1` [reference compound] reads 1.06 µM.
For the compound `CC1(C)CN(C(=O)c2ccc(-c3cccc4nc(NC(=O)C5CC5)nn34)cc2)C1` [reference compound], the 50% effective concentration (EC50) is 1.42 µM.
For `C[C@@H](O)c1nc2cnc3[nH]ccc3c2n1[C@H]1CC[C@H](C#N)CC1` [reference compound], the EC50 was found to be 2.69 µM.

These data come from US10766894B2, “Aza-indazole compounds for use in tendon and/or ligament injuries” (NOVARTIS AG, priority 2016, dated 2020).
